Some results are limits rather than exact numbers.

From patent US6545033B1, “Fused 1-(2,6-dichloro-4-trifluoromethylphenyl)-pyrazoles, the synthesis thereof and the use thereof as pesticides” (3-Dimensional Pharmaceuticals, Inc., priority 1999, dated 2003) come the findings set out here.

For test [1], the target named is Mouse Brain GABA Receptors. Nature of the test: In vitro assay of binding to mouse brain GABA receptors (3H-EBOB displacement, mouse brain membranes). The following applies: displacement of 5.2 nM 3H-EBOB, about 45 min at about 24° C. How it is done: Mouse brains were obtained from carbon dioxide-asphyxiated Swiss-Webster mice, washed with phosphate-buffered saline, and used either fresh or after storage at −80° C. for up to 10 months. Unless specified, all preparation steps were performed at 0-4° C. For each preparation, 20 brains were suspended in about 40 mL of 0.32 M sucrose and homogenized for about 2 minutes, using a Tissumizer™ homogenizer equipped with a SDT-100EN probe (available from Tekmar-Dohrmann, Cincinnati, Ohio) running at 50% of its maximum speed. The extract was centrifuged for about 5 min at about 1000×g to pellet intact brain tissue. The supernatant was retained and the pellet washed with an additional 40 mL of 0.32 M sucrose and centrifuged at 1000×g for about 5 minutes. The 1000×g supernatants were combined and centrifuged at about 10,000×g for about 20 min to pellet membranes. The 10,000×g supernatant was discarded and the pellet was resuspended in about 20 mL of water containing 1 mM EDTA. The sample was dialyzed two times for about 3 hours each against about 3 L of water. The sample was then centrifuged at about 25,000×g for about 30 min to pellet the membranes. After centrifugation, the supernatant was discarded and the wet pellet recovered. The protein concentration of the pellet was determined by the Bio-Rad Protein Assay (available from Bio-Rad Laboratories, Hercules, Calif.) using bovine serum albumin as a standard. The membranes were aliquoted and stored at −80° C. for up to 6 months before use.
Mouse brain membranes were prepared as described above from dissected mouse brains. Test compounds were dissolved in dimethylsulfoxide (DMSO) at concentrations ranging from about 2 nM to about 100 mM. About 1 μL of a dissolved test compound was dispensed into a well of a 96-well polystyrene plate. About 100 μL of ice cold assay buffer (10 mM phosphate, 300 mM NaCl, pH 7.5) containing 5.2 nM 4′-Ethynyl-4-n-[2,3-^3H2]propylbicycloorthobenzoate (^3H-EBOB, 38 Ci/mmol, available from NEN Life Science Products, Boston, Mass.) was added to the well, followed by about 100 μL of ice cold assay buffer containing about 0.25-0.5 mg/mL mouse brain membranes. Control wells were prepared the same way except that the mouse brain membranes were omitted from the “negative” wells, and the test compounds were omitted from the “positive” wells. The samples were incubated for about 45 min at about 24° C. and then filtered on a 0.1% (w/v) polyethylenimine-soaked glass fiber Filtermat A (available from EG&G Wallac Inc., Gaithersburg, Md.) followed by four 100 mL rinses of cold assay buffer using a Harvester 96® cell harvester (available from Tomtec, Orange, Conn.). The filtermat was air dried and radioactivity bound to the filtermat was detected with either a 1450 MicroBeta® Trilux scintillation counter (available from EG&G Wallac Inc.) or a Topcount NXT™ scintillation counter (available from Packard Instrument Co., Meriden, Conn.) using standard methods.
Specific binding was considered to be the difference between total ^3H bound to the mouse brain membranes in the absence of any inhibitors and nonspecific ^3H bound to the mouse brain membranes upon the addition of 5 μM unlabeled EBOB. The average radioactivity contained in the “negative” wells was subtracted from each of the assay wells. […] Compounds that displaced ^3H-EBOB specifically bound to the mouse brain membranes were tested at 24-48 different final concentrations, varying from about 1 nM to about 125 μM, in order to determine the concentration at which 50% of the maximum inhibition due to the addition of that compound was observed (IC50). […]

The subject of test [2] is cat fleas (Ctenocephalides felis), NC Fleas. Nature of the test: In vivo cat flea contact assay, NC fleas. As to conditions: contact with treated filter disk in vial, about 24-30 hours; mM = concentration of the DMSO solution, about 1 μL applied. Here is the method:
This example describes an in vivo assay to screen compounds for their ability to kill cat fleas via contact.
Test compounds were dissolved in dimethylsulfoxide (DMSO) at concentrations ranging from about 0.05 mM to about 100 mM. About 1 μL of dissolved test compound was dispensed onto a 6 mm (diameter) GF/C filter disk (filter material available from Whatman Inc., Clifton, N.J.) in the bottom of a 4 mL screw-top glass vial and allowed to air dry 24-48 hours. Positive control vials were prepared in the same manner except that no test compounds were dissolved in the DMSO. About 20 newly emerged cat fleas (Ctenocephalides felis) were sedated by refrigeration at 0-4° C. and transferred to each vial. Each vial was sealed with a thin, perforated Teflon™ septum secured by an open top screw cap and held vertically in the dark. After about 24-30 hours, the healthy, moribund, and dead cat fleas in each vial were counted. The percentage of dead cat fleas in each vial was then calculated using the formula M=100(D−(FC/100))/(F−(FC/100)), in which M is the percentage of dead cat fleas due to the addition of the test compound, D is the number of dead cat fleas in the test vial, F is the total number of cat fleas in the test vial, and C is the percentage of dead cat fleas in the control vials.

Test [3] deals with houseflies (Musca domestica). Nature of the test: In vivo housefly contact assay. The following applies: contact in coated glass test tube, about 24 hours; mM = concentration of the DMSO solution, about 1 μL applied. How it is done: This example describes an in vivo assay to screen compounds for their ability to kill houseflies via contact. Newly emerged houseflies (Musca domestica, available from Rincon-Vitova Insectaries, Inc., Ventura, Calif.) were sedated with carbon dioxide gas, collected in 50 mL polypropylene conical tubes containing filter paper saturated with 10% (w/w) sucrose in water, and allowed to feed at room temperature for about 2-4 hours. Test compounds were dissolved as in dimethylsulfoxide (DMSO) at concentrations ranging from about 0.05 mM to about 100 mM. About 1 μL of dissolved test compound and about 100 μL of isopropanol were dispensed into the bottom of a 9 mL screw-top glass test tube. Positive control test tubes were prepared in the same manner except that no test compounds were dissolved in the DMSO. Each test tube was rolled to coat the sides with the chemical solution, and allowed to air dry 24-48 hours. About 20 houseflies were sedated by refrigeration at 0-4° C. and transferred to each test tube. Each test tube was sealed with organdy cloth secured by an open top screw cap and laid horizontally in the dark. After about 24 hours, the healthy, moribund, and dead houseflies in each test tube were counted. The percentage of dead houseflies in each test tube was then calculated using the formula M=100(D−(FC/100))/(F−(FC/100)), in which M is the percentage of dead houseflies due to the addition of the test compound, D is the number of dead houseflies in the test tube, F is the total number of houseflies in the test tube, and C is the percentage of dead houseflies in the control test tubes.

In test [1], `FC(F)(F)c1cc(Cl)c(-n2cc3c(n2)CSC3)c(Cl)c1` [Compound 3, 2-[2,6-Dichloro-4-(trifluoromethyl)phenyl]-4,6-dihydrothieno-[3,4-c]pyrazole] registered an IC50 of 2000 nM. Moreover, the “LD50 (mM), NC Fleas” value in test [2] came out at 3.0 mM. Also, the “LD50 (mM), Flies” value in test [3] is listed as 2.7 mM.

In test [1], `FC(F)(F)c1cc(Cl)c(-n2cc3c(n2)CCC3)c(Cl)c1` [Compound 11, 2-[2,6-Dichloro-4-(trifluoromethyl)phenyl]-2,4,5,6-tetrahydrocyclopenta[c]pyrazole] displayed an IC50 of 1600 nM. Besides, the “LD50 (mM), NC Fleas” value in test [2] came out at 7 mM. In addition, in test [3], the “LD50 (mM), Flies” value is above 100 mM.

`FC(F)(F)c1cc(Cl)c(-n2cc3c(n2)CCCCC3)c(Cl)c1` [Compound 15, 2-[2,6-Dichloro-4-(trifluoromethyl)phenyl]-2,4,5,6,7,8-hexahydrocyclohepta[c]pyrazole] returned an IC50 in test [1] of 30000 nM. Besides, the “LD50 (mM), NC Fleas” value in test [2] amounted to 33.5 mM. The “LD50 (mM), Flies” value in test [3] was above 100 mM.

For orientation: IC50 means the concentration needed to halve the response being measured.
